System: SEM cells
Experiment: cell viability relative to DMSO control; higher = less cytotoxic
Details: 48 h
Method in brief: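 Before seeding, each leukemia line was adapted for at least four passages in each medium. NOMO1 or SEM cells (500 cells/well) and P12-Ichikawa cells (1000 cells/well) went into 1536-well plates at 5 μl, then received library compounds in DMSO by pin dosing across 11 threefold concentrations, 47 μM to 0.79 nM. Readout was CellTiter-Glo One luminescence after 48 h at 37°C, and viability is given as a per-plate percentage of DMSO wells, with cell-free wells as background.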

[1] = HPLM + 10% dialyzed FBS, 0.000781 µM
[2] = HPLM + 10% dialyzed FBS, 0.00234 µM
[3] = HPLM + 10% dialyzed FBS, 0.00702 µM
[4] = HPLM + 10% dialyzed FBS, 0.0211 µM
[5] = HPLM + 10% dialyzed FBS, 0.0632 µM
[6] = HPLM + 10% dialyzed FBS, 0.19 µM
[7] = HPLM + 10% dialyzed FBS, 0.569 µM
[8] = HPLM + 10% dialyzed FBS, 1.71 µM
[9] = HPLM + 10% dialyzed FBS, 5.12 µM
[10] = HPLM + 10% dialyzed FBS, 15.4 µM
[11] = HPLM + 10% dialyzed FBS, 46.1 µM
[12] = RPMI 5 mM glucose + 10% FBS, 0.000781 µM
[13] = RPMI 5 mM glucose + 10% FBS, 0.00234 µM
[14] = RPMI 5 mM glucose + 10% FBS, 0.00702 µM
[15] = RPMI 5 mM glucose + 10% FBS, 0.0211 µM
[16] = RPMI 5 mM glucose + 10% FBS, 0.0632 µM
[17] = RPMI 5 mM glucose + 10% FBS, 0.19 µM
[18] = RPMI 5 mM glucose + 10% FBS, 0.569 µM
[19] = RPMI 5 mM glucose + 10% FBS, 1.71 µM
[20] = RPMI 5 mM glucose + 10% FBS, 5.12 µM
[21] = RPMI 5 mM glucose + 10% FBS, 15.4 µM
[22] = RPMI 5 mM glucose + 10% FBS, 46.1 µM
[23] = RPMI 5 mM glucose + 10% dialyzed FBS, 0.000781 µM
[24] = RPMI 5 mM glucose + 10% dialyzed FBS, 0.00234 µM
[25] = RPMI 5 mM glucose + 10% dialyzed FBS, 0.00702 µM
[26] = RPMI 5 mM glucose + 10% dialyzed FBS, 0.0211 µM
[27] = RPMI 5 mM glucose + 10% dialyzed FBS, 0.0632 µM
[28] = RPMI 5 mM glucose + 10% dialyzed FBS, 0.19 µM
[29] = RPMI 5 mM glucose + 10% dialyzed FBS, 0.569 µM
[30] = RPMI 5 mM glucose + 10% dialyzed FBS, 1.71 µM
[31] = RPMI 5 mM glucose + 10% dialyzed FBS, 5.12 µM
[32] = RPMI 5 mM glucose + 10% dialyzed FBS, 15.4 µM
[33] = RPMI 5 mM glucose + 10% dialyzed FBS, 46.1 µM

| SMILES | cell viability [1] [%] | cell viability [2] [%] | cell viability [3] [%] | cell viability [4] [%] | cell viability [5] [%] | cell viability [6] [%] | cell viability [7] [%] | cell viability [8] [%] | cell viability [9] [%] | cell viability [10] [%] | cell viability [11] [%] | cell viability [12] [%] | cell viability [13] [%] | cell viability [14] [%] | cell viability [15] [%] | cell viability [16] [%] | cell viability [17] [%] | cell viability [18] [%] | cell viability [19] [%] | cell viability [20] [%] | cell viability [21] [%] | cell viability [22] [%] | cell viability [23] [%] | cell viability [24] [%] | cell viability [25] [%] | cell viability [26] [%] | cell viability [27] [%] | cell viability [28] [%] | cell viability [29] [%] | cell viability [30] [%] | cell viability [31] [%] | cell viability [32] [%] | cell viability [33] [%] |
| --- | --- | --- | --- | --- | --- | --- | --- | --- | --- | --- | --- | --- | --- | --- | --- | --- | --- | --- | --- | --- | --- | --- | --- | --- | --- | --- | --- | --- | --- | --- | --- | --- | --- |
| CN(CCOc1ccc(CC2SC(=O)NC2=O)cc1)c1ccccn1 (centres undefined) | 116 | 117 | 121 | 106 | 113 | 123 | 117 | 115 | 124 | 121 | 116 | 76.7 | 94.7 | 85.4 | 102 | 84.2 | 81.9 | 90.5 | 95.1 | 85.7 | 97.3 | 104 | 107 | 119 | 113 | 117 | 113 | 107 | 112 | 106 | 121 | 114 | 122 |
| CCNC(=O)CCC/C=C\C[C@@H]1[C@@H](/C=C/C(O)CCc2ccccc2)[C@@H](O)C[C@@H]1O (some centres undefined) | 96.2 | 116 | 100 | 98.8 | 115 | 104 | 104 | 108 | 108 | 91.2 | 87.4 | 95.4 | 112 | 110 | 98.7 | 118 | 111 | 117 | 118 | 111 | 98.2 | 100 | 89.6 | 117 | 128 | 107 | 120 | 109 | 102 | 106 | 114 | 107 | 81.3 |
| CN1CCc2c(c3ccccc3n2Cc2ccc(C(=O)NO)cc2)C1 | 81.4 | 76.1 | 79.7 | 95.4 | 84.2 | 79.2 | 70.7 | 83.9 | 88.3 | 25.2 | 11.7 | 87.3 | 78.9 | 88.5 | 92.9 | 84.8 | 78 | 57.5 | 97.3 | 88.3 | 38.6 | 26.2 | 76.7 | 60.4 | 67 | 78.4 | 69.5 | 61.2 | 58.1 | 77.2 | 94.6 | 32 | 22.6 |
| CO[C@H]1CCC(O[C@H]2C[C@H]([C@]3(C)CC[C@]4(C[C@H](O)[C@@H](C)[C@@H]([C@@H](C)/C=C(\C)C(=O)[C@H](C)C[C@H](C)C(=O)[O-])O4)O3)O[C@]3(O[C@@H]([C@H]4O[C@@](O)(CO)[C@H](C)C[C@@H]4C)C[C@@H]3C)[C@@H]2C)O[C@@H]1C (some centres undefined) |  |  |  |  |  |  |  |  |  |  |  | 121 | 119 | 112 | 108 | 117 | 128 | 98.3 | 66.6 | 29.8 | 18.7 | 14.3 |  |  |  |  |  |  |  |  |  |  |  |
| COc1cc2c(cc1OC)[C@@H]1Cc3ccc(OC)c(OC)c3CN1CC2 | 94.1 | 123 | 118 | 123 | 114 | 119 | 121 | 122 | 117 | 109 | 109 | 110 | 108 | 103 | 111 | 104 | 109 | 99.3 | 93.9 | 99.4 | 102 | 78.4 | 97.9 | 108 | 113 | 112 | 129 | 124 | 108 | 133 | 122 | 120 | 82.2 |
| CN(C)C/C=C/C(=O)Nc1ccc(C(=O)Nc2cccc(Nc3ncc(Cl)c(-c4c[nH]c5ccccc45)n3)c2)cc1 | 75.1 | 79.4 | 90 | 62.5 | 85.8 | 47.6 | 4.17 | 3.85 | 3.85 | 3.77 | 3.63 | 97.5 | 122 | 128 | 129 | 120 | 68 | 5.08 | 6.09 | 5.71 | 6.09 | 6.13 | 83.4 | 76.3 | 103 | 73.3 | 78.8 | 43.6 | 4.95 | 4.94 | 4.59 | 4.42 | 4.34 |
| CC(=O)N(C)C1(c2ccccc2)CCN(CCC[C@]2(c3ccc(Cl)c(Cl)c3)CCCN(C(=O)c3ccccc3)C2)CC1 | 120 | 129 | 124 | 116 | 123 | 120 | 74.1 | 14.2 | 11.2 | 9.08 | 7.03 | 109 | 130 | 103 | 126 | 123 | 123 | 78.7 | 9.2 | 6.49 | 6.83 | 4.78 | 109 | 145 | 119 | 128 | 139 | 128 | 133 | 18.4 | 12 | 10.6 | 6.46 |
